Tests used:
[1] = target: T1, 3',5'-cyclic-AMP phosphodiesterase 4A (Homo sapiens, UniProt P27815); experiment: Inhibitory concentration of compound against LPS- induced TNF-alpha production in whole human blood assay; assay type: functional, tissue-based
Target sequence in this assay (P27815 whole entry, the tested form may be a part, canonical isoform): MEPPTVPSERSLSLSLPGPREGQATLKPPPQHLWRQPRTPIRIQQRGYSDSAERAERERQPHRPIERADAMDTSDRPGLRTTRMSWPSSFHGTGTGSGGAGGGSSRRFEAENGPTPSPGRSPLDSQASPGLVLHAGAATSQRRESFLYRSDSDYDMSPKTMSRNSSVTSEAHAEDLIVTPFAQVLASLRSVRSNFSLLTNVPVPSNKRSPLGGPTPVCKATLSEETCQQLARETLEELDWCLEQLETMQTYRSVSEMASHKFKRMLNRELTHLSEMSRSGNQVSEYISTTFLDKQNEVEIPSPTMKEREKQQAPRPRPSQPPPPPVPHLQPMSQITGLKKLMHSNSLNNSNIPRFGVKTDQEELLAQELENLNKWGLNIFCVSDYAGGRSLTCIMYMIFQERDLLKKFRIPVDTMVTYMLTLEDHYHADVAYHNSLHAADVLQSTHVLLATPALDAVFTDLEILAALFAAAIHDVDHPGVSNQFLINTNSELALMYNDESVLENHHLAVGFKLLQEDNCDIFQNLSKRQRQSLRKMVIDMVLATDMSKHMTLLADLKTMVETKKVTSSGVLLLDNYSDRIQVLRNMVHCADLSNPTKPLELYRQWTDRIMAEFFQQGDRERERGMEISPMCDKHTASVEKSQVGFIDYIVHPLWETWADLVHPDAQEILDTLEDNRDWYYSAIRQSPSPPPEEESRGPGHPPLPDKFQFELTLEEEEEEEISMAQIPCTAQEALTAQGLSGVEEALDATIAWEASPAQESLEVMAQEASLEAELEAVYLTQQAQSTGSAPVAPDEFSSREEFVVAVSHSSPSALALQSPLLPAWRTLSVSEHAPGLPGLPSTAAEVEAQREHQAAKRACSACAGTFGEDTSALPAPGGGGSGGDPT

[2] = target: T1, 3',5'-cyclic-AMP phosphodiesterase 4A; experiment: Inhibitory concentration against human PDE4A isoform using a construct representing the common region of spliced variants expressed as GST-fusion protein in Sf9 cells
Target sequence in this assay (P27815 whole entry, looked up, stated change not applied, the tested form may be a part, canonical isoform): as the sequence (P27815 whole entry, the tested form may be a part, canonical isoform) above

[3] = Bioavailability; assay type: ADME, organism-based; conditions: eutheria, in vivo
[4] = Half-life period was determined; assay type: ADME
[5] = Half life of compound was determined in squirrel monkey; assay type: ADME; conditions: in vivo
[6] = Half life of compound was determined in rat; assay type: ADME, organism-based; conditions: in vivo
Mustela putorius furo = species: Mustela putorius furo; experiment: Emetic effect in ferrets; assay type: functional
Cavia porcellus = experiment: Ovalbumin induced bronchoconstriction in conscious guinea pig pretreated with 1 mg/kg intraperitoneal dose for 4 hr; assay type: functional
Ovis aries [7] = experiment: Ascaris-induced early phase bronchoconstriction in conscious sheep administered intravenously at 2 mg/kg; assay type: functional; conditions: route intravenous
Ovis aries [8] = experiment: Ascaris-induced late phase bronchoconstriction in conscious sheep administered intravenously at 2 mg/kg; assay type: functional; conditions: route intravenous
[9] = Ascaris-induced bronchoconstriction in anesthetized squirrel monkey pretreated with 3 mg/kg peroral dose for 4 hr; assay type: functional; conditions: route oral
[10] = Ascaris-induced bronchoconstriction in anesthetized squirrel monkey pretreated with 5 mg/kg intravenously for 30 min; assay type: functional; conditions: route intravenous

Structure (SMILES)	IC50 [1]	IC50 [2]	also measured
[O-][n+]1ccc(CC(c2ccc(COc3ccc(F)cc3)cc2)c2ccc(OC(F)F)c(OC(F)F)c2)cc1 (stereo not given)	1900 nM	0.5 nM	–
CC(C)(C(=O)O)c1cccc(-c2ccc(C(Cc3cc[n+]([O-])cc3)c3ccc(OC(F)F)c(OC(F)F)c3)cc2)c1 (stereo not given)	6500 nM	2.2 nM	–
FC(F)Oc1ccc(C(Cc2ccncc2)c2ccc(Cl)cc2)cc1OC(F)F (stereo not given)	4500 nM	11 nM	–
[O-][n+]1ccc(CC(c2ccc(C3(O)CCC3)cc2)c2ccc(OC(F)F)c(OC(F)F)c2)cc1 (stereo not given)	380 nM	7.5 nM	bioavailability [3]: 100%; half-life [4]: 2 h
Clc1ccc(C(Cc2ccncc2)c2ccc3c(c2)OCCO3)cc1 (stereo not given)	–	772 nM	–
CC(C)(O)c1ccc(C(Cc2cc[n+]([O-])cc2)c2ccc(OC(F)F)c(OC(F)F)c2)cc1 (stereo not given)	360 nM	9.6 nM	bioavailability [3]: 55%; half-life [4]: 1 h
COc1ccc(C(Cc2ccncc2)c2ccc(Cl)cc2)cc1OC1CCCC1 (stereo not given)	12000 nM	2.8 nM	–
Cc1ccccc1C(=O)NS(=O)(=O)c1ccc(C(Cc2cc[n+]([O-])cc2)c2ccc(OC(F)F)c(OC(F)F)c2)cc1 (stereo not given)	75000 nM	3.1 nM	–
[O-][n+]1ccc(CC(c2ccc(C3(O)CC3)cc2)c2ccc(OC(F)F)c(OC(F)F)c2)cc1 (stereo not given)	1700 nM	16 nM	–
[O-][n+]1ccc(CC(c2ccc(CO)cc2)c2ccc(OC(F)F)c(OC(F)F)c2)cc1 (stereo not given)	470 nM	44 nM	–
Clc1ccc(C(Cc2ccncc2)c2ccc3c(c2)OCO3)cc1 (stereo not given)	–	> 1000 nM	–
O=C(O)Cc1ccc(C(Cc2cc[n+]([O-])cc2)c2ccc(OC(F)F)c(OC(F)F)c2)cc1 (stereo not given)	58000 nM	53 nM	–
COc1ccc(C(Cc2ccncc2)c2ccc(Cl)cc2)c(F)c1OC1CCCC1 (stereo not given)	98000 nM	110 nM	–
CC(O)c1ccc(C(Cc2cc[n+]([O-])cc2)c2ccc(OC(F)F)c(OC(F)F)c2)cc1 (stereo not given)	510 nM	45 nM	–
[O-][n+]1ccc(CC(c2ccc(C(O)(C(F)(F)F)C(F)(F)F)cc2)c2ccc(OC(F)F)c(OC(F)F)c2)cc1 (stereo not given)	670 nM	4.2 nM	half-life [5]: 48 h; half-life [6]: > 24 h; Dose (Mustela putorius furo): >3 mg/kg; Efficacy (Cavia porcellus): 58%; Efficacy (Ovis aries [7]): 85%; Efficacy (Ovis aries [8]): 95%; Efficacy [9]: 96%
O=C(O)c1ccc(C(Cc2cc[n+]([O-])cc2)c2ccc(OC(F)F)c(OC(F)F)c2)cc1 (stereo not given)	77000 nM	24 nM	–
COc1ccc([C@H](Cc2ccncc2)c2ccccc2)cc1OC1CCCC1 [CDP840]	16000 nM	4.3 nM	half-life [5]: < 1 h; half-life [6]: < 0.5 h; Dose (Mustela putorius furo): 30 mg/kg; Efficacy [10]: 64%
CN(C)C(=O)c1ccc(C(Cc2cc[n+]([O-])cc2)c2ccc(OC(F)F)c(OC(F)F)c2)cc1 (stereo not given)	1000 nM	8.6 nM	–
FC(F)Oc1ccc(C(Cc2ccncc2)c2ccc(Cl)cc2)cc1OC1CCCC1 (stereo not given)	8700 nM	13 nM	–
CCNC(=O)OCc1ccc(C(Cc2cc[n+]([O-])cc2)c2ccc(OC(F)F)c(OC(F)F)c2)cc1 (stereo not given)	410 nM	4.6 nM	–
Cc1ccc(C(=O)c2ccc(C(Cc3cc[n+]([O-])cc3)c3ccc(OC(F)F)c(OC(F)F)c3)cc2)nc1 (stereo not given)	890 nM	7.3 nM	–

Source: ChEMBL document CHEMBL1135123, “Discovery of L-791,943: a potent, selective, non emetic and orally active phosphodiesterase-4 inhibitor” (Bioorg Med Chem Lett, 2002)
